Results reported in patent US12581252B2, “Substituted pyrrolo[3,4-b]pyridines as PI3K-α inhibitors” (Relay Therapeutics, Inc., priority 2020, dated 2026).
pIC50: −log10 of the molar value.

target: H1047R PIK3CA enzyme (Homo sapiens, UniProt P42336, H1047R); test: ADP-Glo Biochemical PIK3CA Kinase Assay
Sequence (P42336 whole entry H1047R): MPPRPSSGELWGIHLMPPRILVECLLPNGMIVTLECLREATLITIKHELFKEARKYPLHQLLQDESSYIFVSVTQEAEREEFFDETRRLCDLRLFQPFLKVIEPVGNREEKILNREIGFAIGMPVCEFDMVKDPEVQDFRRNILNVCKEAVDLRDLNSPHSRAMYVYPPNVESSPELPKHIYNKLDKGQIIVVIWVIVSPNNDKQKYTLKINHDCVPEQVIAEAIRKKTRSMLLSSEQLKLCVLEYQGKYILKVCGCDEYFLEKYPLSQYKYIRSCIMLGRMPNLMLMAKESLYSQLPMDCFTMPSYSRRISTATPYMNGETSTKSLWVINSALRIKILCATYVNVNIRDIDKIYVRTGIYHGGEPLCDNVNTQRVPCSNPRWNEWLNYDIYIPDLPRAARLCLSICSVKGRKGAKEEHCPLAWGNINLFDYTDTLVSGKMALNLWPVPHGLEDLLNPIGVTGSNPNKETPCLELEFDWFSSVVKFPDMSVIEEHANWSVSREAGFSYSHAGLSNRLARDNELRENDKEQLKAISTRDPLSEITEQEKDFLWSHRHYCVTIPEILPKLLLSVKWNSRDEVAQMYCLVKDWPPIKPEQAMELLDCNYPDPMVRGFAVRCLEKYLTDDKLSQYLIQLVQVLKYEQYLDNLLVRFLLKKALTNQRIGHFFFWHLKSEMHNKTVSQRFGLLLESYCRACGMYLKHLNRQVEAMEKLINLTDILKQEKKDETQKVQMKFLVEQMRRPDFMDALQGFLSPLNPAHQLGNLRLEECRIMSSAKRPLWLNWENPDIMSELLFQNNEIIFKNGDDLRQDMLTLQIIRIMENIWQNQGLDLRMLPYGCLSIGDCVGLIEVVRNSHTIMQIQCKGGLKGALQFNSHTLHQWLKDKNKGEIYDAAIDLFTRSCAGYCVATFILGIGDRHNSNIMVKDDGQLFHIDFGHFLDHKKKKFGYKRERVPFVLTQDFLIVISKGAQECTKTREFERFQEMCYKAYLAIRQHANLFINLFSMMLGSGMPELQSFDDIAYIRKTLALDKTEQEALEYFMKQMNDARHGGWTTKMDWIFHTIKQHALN
Sequence (P27986 whole entry partner): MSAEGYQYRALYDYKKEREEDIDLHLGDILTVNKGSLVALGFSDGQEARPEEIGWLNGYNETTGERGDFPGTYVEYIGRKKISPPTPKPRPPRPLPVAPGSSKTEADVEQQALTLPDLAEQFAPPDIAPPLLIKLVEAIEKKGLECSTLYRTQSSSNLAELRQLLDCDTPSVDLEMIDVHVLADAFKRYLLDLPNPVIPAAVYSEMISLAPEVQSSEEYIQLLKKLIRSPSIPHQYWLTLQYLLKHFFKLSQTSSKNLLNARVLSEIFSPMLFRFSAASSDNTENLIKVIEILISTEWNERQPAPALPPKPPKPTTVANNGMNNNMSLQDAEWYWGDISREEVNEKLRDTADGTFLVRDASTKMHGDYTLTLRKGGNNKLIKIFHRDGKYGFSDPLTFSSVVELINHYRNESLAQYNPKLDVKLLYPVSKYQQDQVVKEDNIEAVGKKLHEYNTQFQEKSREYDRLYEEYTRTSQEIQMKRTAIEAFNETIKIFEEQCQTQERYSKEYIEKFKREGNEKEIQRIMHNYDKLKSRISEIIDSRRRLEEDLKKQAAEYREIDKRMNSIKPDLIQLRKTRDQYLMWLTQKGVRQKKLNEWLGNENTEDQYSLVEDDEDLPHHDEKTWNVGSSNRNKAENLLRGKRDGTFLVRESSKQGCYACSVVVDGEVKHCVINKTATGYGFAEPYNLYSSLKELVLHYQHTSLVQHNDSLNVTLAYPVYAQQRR

Row | Structure (SMILES) | pIC50
1 | Cc1ncc(-c2cc(NC(=O)c3cc(F)cc(C(F)(F)F)c3)c3c(n2)C(=O)NC3c2cc(F)ccc2Cl)cn1 (stereo not shown) [Compound I-584] | ≥ 7.00
2 | Cn1nccc1Cc1cc(NC(=O)c2cc(F)cc(C(F)(F)F)c2)c2c(c1)C(=O)NC2c1cc(F)ccc1Cl (stereo not shown) [Compound I-1293] | ≥ 7.00
3 | O=C1NC(c2cc(F)ccc2Cl)c2c(NC(=O)c3cc(F)cc4c(Cl)n[nH]c34)cc(Br)cc21 (stereo not shown) [Compound I-1686] | 5.00 to 6.00
4 | O=C(Nc1cc(N2CCC2)nc2c1C(c1cc(F)ccc1Cl)NC2=O)c1cc(F)cc(C(F)(F)F)c1 (stereo not shown) [Compound I-441] | ≥ 7.00
5 | O=C(Nc1cc(OC2CCOC2)cc2c1C(c1cc(F)ccc1Cl)NC2=O)c1cc(F)cc(C(F)(F)F)c1 (stereo not shown) [Compound I-1184] | ≥ 7.00
6 | Cc1ccccc1C1NC(=O)c2cccc(NC(=O)c3nsc4ccc(-c5ccccc5)cc34)c21 (stereo not shown) [Compound I-378] | 5.00 to 6.00
7 | O=C1NC(c2cc(F)ccc2Cl)c2c(NC(=O)c3cc(F)cc4cn[nH]c34)cccc21 (stereo not shown) [Compound I-595] | 5.00 to 6.00
8 | Cc1ccccc1C1NC(=O)c2cccc(NC(=O)c3cnn4ccc(Cl)cc34)c21 (stereo not shown) [Compound I-48] | 5.00 to 6.00
9 | O=C(Nc1cc(OC[C@H]2CCO2)cc2c1[C@H](c1cc(F)ccc1Cl)NC2=O)c1cc(F)cc(C(F)(F)F)c1 (single isomer, unassigned) [Compound I-1518] | ≥ 7.00
10 | O=C1NC(c2cc(F)ccc2Cl)c2c(NC(=O)N3CCCC3)cc(Br)cc21 (stereo not shown) [Compound I-481] | 4.00 to 5.00
11 | O=C(Nc1cc(C2COC2)nc2c1C(c1cc(F)ccc1Cl)NC2=O)c1cc(F)cc(C(F)(F)F)c1 (stereo not shown) [Compound I-689] | 6.30 to 7.00
12 | O=C1NC(c2cc(F)ccc2Cl)c2c(NC(=O)c3cncc4ccccc34)cc(Br)cc21 (stereo not shown) [Compound I-673] | 5.00 to 6.00
13 | O=C(Nc1cc(-c2ccc3ncccc3c2)cc2c1[C@@H](c1cc(F)ccc1Cl)NC2=O)c1cc(F)cc(C(F)(F)F)c1 [Compound I-893] | 5.00 to 6.00
14 | O=C(Nc1cccc2c1C(C1CCC(O)CC1)NC2=O)c1cc(F)cc(C(F)(F)F)c1 (stereo not shown) [Compound I-1835] | 4.00 to 5.00
15 | CNC(=O)c1cc(NC(=O)c2nsc3ccccc23)c2c(c1)C(=O)N[C@H]2c1ccccc1C [Compound I-163] | ≥ 7.00

More lines, now with the values ahead:

Row | pIC50 | Structure (SMILES)
16 | 4.00 to 5.00 | O=C(CC1CCCC(O)C1)Nc1cc(-c2ccc3ncnn3c2)cc2c1C(c1cc(F)ccc1Cl)NC2=O (stereo not shown) [Compound I-1960]
17 | 4.00 to 5.00 | O=C(Nc1cccc2c1C(c1cc(F)ccc1Cl)NC2=O)c1csc2c1CCNC2 (stereo not shown) [Compound I-2304]
18 | 4.00 to 5.00 | O=C1CCC[C@H]([C@@H]2NC(=O)c3cccc(NC(=O)c4cc(F)cc(C(F)(F)F)c4)c32)C1 (single isomer, unassigned) [Compound I-2254]
19 | 4.00 to 5.00 | CC([C@H]1C[C@@H](O)CN1C(=O)Nc1cccc2c1C(c1cc(F)ccc1Cl)NC2=O)C(F)(F)F (single isomer, unassigned) [Compound I-2287]
20 | 5.00 to 6.00 | N#CCc1ccc(NC(=O)N2C[C@](O)(C(F)(F)F)c3cc(F)ccc32)c2c1C(=O)N[C@@H]2c1cc(F)ccc1Cl (single isomer, unassigned) [Compound I-2615]
21 | 5.00 to 6.00 | O=C1NC(c2cc(F)ccc2Cl)c2c(NC(=O)N3CCc4ccc(OC(F)(F)F)cc43)cccc21 (stereo not shown) [Compound I-2480]
22 | 5.00 to 6.00 | O=C(Nc1cc(OCC(F)F)cc2c1[C@@H](c1cc(F)ccc1Cl)NC2=O)c1cc(F)cc(C(F)(F)F)c1 [Compound I-2061]
23 | 4.00 to 5.00 | O=C1N[C@@H](c2cc(F)ccc2Cl)c2c(NC(=O)C3(c4cc(F)cc(C(F)(F)F)c4)CCCC3)cc(Br)cc21 [Compound I-2071]
24 | 5.00 to 6.00 | N#Cc1cc(NC(=O)N2C[C@](O)(C(F)(F)F)c3ccccc32)c2c(c1)C(=O)N[C@H]2c1cc(F)ccc1Cl (single isomer, unassigned) [Compound I-2565]
25 | 5.00 to 6.00 | O=C1N[C@@H](c2cc(F)ccc2Cl)c2c(NC(=O)N3C[C@](O)(C(F)F)c4ccccc43)cccc21 (single isomer, unassigned) [Compound I-2485]
